# The supplement of paper PMC10307832
# Tests used:
# Assay in all cases: relative viability (nuclei count vs DMSO), 5 days (fraction); higher = more cells survive
# [1] = tested on: CAL-12T
# How it was run: (§1)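 One day after seeding in 1536-well plates, lung cancer cell lines were dosed by pin tool. Dosing was either single-drug or a fixed anchor-drug dose plus five library-drug doses (not always all listed) in √10 steps. After 5 days, nuclei were stained in one fix-and-stain step and counted on 4× images, and relative viability is the nuclei count of treated wells over that of vehicle wells, given as the median of duplicate plates.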
# [2] = tested on: HCC-78
# How it was run: as §1
# [3] = tested on: COR-L 105
# How it was run: as §1
# [4] = tested on: NCI-H358
# How it was run: as §1
# [5] = tested on: ABC-1
# How it was run: as §1
# [6] = tested on: HCC-827
# How it was run: as §1
# [7] = tested on: HCC-366
# How it was run: as §1
# [8] = tested on: LXF-289
# How it was run: as §1
# [9] = tested on: LU99A
# How it was run: as §1
# [10] = tested on: NCI-H2342
# How it was run: as §1
# [11] = tested on: NCI-H1734
# How it was run: as §1
# [12] = tested on: NCI-H2347
# How it was run: as §1
# [13] = tested on: LOU-NH91
# How it was run: as §1
# [14] = tested on: NCI-H1793
# How it was run: as §1
# [15] = tested on: NCI-H2170
# How it was run: as §1
# [16] = tested on: NCI-H522
# How it was run: as §1
# [17] = tested on: HARA
# How it was run: as §1
# [18] = tested on: NCI-H1915
# How it was run: as §1
# [19] = tested on: EKVX
# How it was run: as §1
# [20] = tested on: 201T
# How it was run: as §1
# [21] = tested on: UMC-11
# How it was run: as §1
# [22] = tested on: NCI-H1437
# How it was run: as §1
smiles,measurement,setting,value
Nc1cccc2c1CN(C1CCC(=O)NC1=O)C2=O (stereo not drawn) [Lenalidomide] + Cc1nc(Nc2ncc(C(=O)Nc3c(C)cccc3Cl)s2)cc(N2CCN(CCO)CC2)n1 [Dasatinib] (partner 0.075 µM),relative viability,[1]; first compound 0.253 µM,0.262
same,relative viability,[1]; first compound 0.8 µM,0.345
same,relative viability,[1]; first compound 2.53 µM,0.397
same,relative viability,[1]; first compound 8 µM,0.368
same,relative viability,[2]; first compound 0.253 µM,0.52
same,relative viability,[2]; first compound 0.8 µM,0.371
same,relative viability,[2]; first compound 2.53 µM,0.465
same,relative viability,[2]; first compound 8 µM,0.308
same,relative viability,[3]; first compound 0.253 µM,0.433
same,relative viability,[3]; first compound 0.8 µM,0.331
same,relative viability,[3]; first compound 2.53 µM,0.427
same,relative viability,[3]; first compound 8 µM,0.371
same,relative viability,[4]; first compound 0.253 µM,0.196
same,relative viability,[4]; first compound 0.8 µM,0.235
same,relative viability,[4]; first compound 2.53 µM,0.19
same,relative viability,[4]; first compound 8 µM,0.165
same,relative viability,[5]; first compound 0.253 µM,0.591
same,relative viability,[5]; first compound 0.8 µM,0.482
same,relative viability,[5]; first compound 2.53 µM,0.602
same,relative viability,[5]; first compound 8 µM,0.55
same,relative viability,[6]; first compound 0.253 µM,0.291
same,relative viability,[6]; first compound 0.8 µM,0.416
same,relative viability,[6]; first compound 2.53 µM,0.341
same,relative viability,[6]; first compound 8 µM,0.312
same,relative viability,[7]; first compound 0.253 µM,0.661
same,relative viability,[7]; first compound 0.8 µM,0.622
same,relative viability,[7]; first compound 2.53 µM,0.752
same,relative viability,[7]; first compound 8 µM,0.334
same,relative viability,[8]; first compound 0.253 µM,0.235
same,relative viability,[8]; first compound 0.8 µM,0.347
same,relative viability,[8]; first compound 2.53 µM,0.234
same,relative viability,[8]; first compound 8 µM,0.213
same,relative viability,[9]; first compound 0.253 µM,0.473
same,relative viability,[9]; first compound 0.8 µM,0.471
same,relative viability,[9]; first compound 2.53 µM,0.54
same,relative viability,[9]; first compound 8 µM,0.308
same,relative viability,[10]; first compound 0.253 µM,0.312
same,relative viability,[10]; first compound 0.8 µM,0.305
same,relative viability,[10]; first compound 2.53 µM,0.322
same,relative viability,[10]; first compound 8 µM,0.3
same,relative viability,[11]; first compound 0.253 µM,0.506
same,relative viability,[11]; first compound 0.8 µM,0.474
same,relative viability,[11]; first compound 2.53 µM,0.562
same,relative viability,[11]; first compound 8 µM,0.4
same,relative viability,[12]; first compound 0.253 µM,0.264
same,relative viability,[12]; first compound 0.8 µM,0.365
same,relative viability,[12]; first compound 2.53 µM,0.286
same,relative viability,[12]; first compound 8 µM,0.214
same,relative viability,[13]; first compound 0.253 µM,0.558
same,relative viability,[13]; first compound 0.8 µM,0.435
same,relative viability,[13]; first compound 2.53 µM,0.555
same,relative viability,[13]; first compound 8 µM,0.456
same,relative viability,[14]; first compound 0.253 µM,0.349
same,relative viability,[14]; first compound 2.53 µM,0.412
same,relative viability,[14]; first compound 8 µM,0.212
same,relative viability,[15]; first compound 0.253 µM,0.547
same,relative viability,[15]; first compound 0.8 µM,0.47
same,relative viability,[15]; first compound 2.53 µM,0.571
same,relative viability,[15]; first compound 8 µM,0.454
same,relative viability,[16]; first compound 0.253 µM,1
same,relative viability,[16]; first compound 2.53 µM,0.749
same,relative viability,[16]; first compound 8 µM,0.678
same,relative viability,[17]; first compound 0.253 µM,0.3
same,relative viability,[17]; first compound 2.53 µM,0.293
same,relative viability,[17]; first compound 8 µM,0.287
same,relative viability,[18]; first compound 0.253 µM,0.321
same,relative viability,[18]; first compound 0.8 µM,0.329
same,relative viability,[18]; first compound 2.53 µM,0.301
same,relative viability,[18]; first compound 8 µM,0.245
same,relative viability,[19]; first compound 0.253 µM,0.613
same,relative viability,[19]; first compound 0.8 µM,0.495
same,relative viability,[19]; first compound 2.53 µM,0.575
same,relative viability,[19]; first compound 8 µM,0.499
same,relative viability,[20]; first compound 0.253 µM,0.598
same,relative viability,[20]; first compound 2.53 µM,0.581
same,relative viability,[20]; first compound 8 µM,0.538
same,relative viability,[21]; first compound 0.253 µM,0.452
same,relative viability,[21]; first compound 0.8 µM,0.456
same,relative viability,[21]; first compound 2.53 µM,0.542
same,relative viability,[21]; first compound 8 µM,0.43
same,relative viability,[22]; first compound 0.253 µM,0.536
same,relative viability,[22]; first compound 0.8 µM,0.45
same,relative viability,[22]; first compound 2.53 µM,0.485
same,relative viability,[22]; first compound 8 µM,0.442
Nc1cccc2c1CN(C1CCC(=O)NC1=O)C2=O (stereo not drawn) [Lenalidomide] + N=C(N)NC(=N)NCCc1ccccc1 [Phenformin] (partner 250 µM),relative viability,[1]; first compound 0.253 µM,0.548
same,relative viability,[1]; first compound 0.8 µM,0.633
same,relative viability,[1]; first compound 2.53 µM,0.639
same,relative viability,[1]; first compound 8 µM,0.647
same,relative viability,[2]; first compound 0.253 µM,0.825
same,relative viability,[2]; first compound 0.8 µM,0.625
same,relative viability,[2]; first compound 2.53 µM,0.909
same,relative viability,[2]; first compound 8 µM,0.448
same,relative viability,[3]; first compound 0.253 µM,0.464
same,relative viability,[3]; first compound 0.8 µM,0.523
same,relative viability,[3]; first compound 2.53 µM,0.554
same,relative viability,[3]; first compound 8 µM,0.513
same,relative viability,[4]; first compound 0.253 µM,0.338
same,relative viability,[4]; first compound 0.8 µM,0.371
same,relative viability,[4]; first compound 2.53 µM,0.405
same,relative viability,[4]; first compound 8 µM,0.359
same,relative viability,[5]; first compound 0.253 µM,0.209
same,relative viability,[5]; first compound 0.8 µM,0.216
same,relative viability,[5]; first compound 2.53 µM,0.27
same,relative viability,[5]; first compound 8 µM,0.258
same,relative viability,[6]; first compound 0.253 µM,0.408
same,relative viability,[6]; first compound 0.8 µM,0.425
same,relative viability,[6]; first compound 2.53 µM,0.432
same,relative viability,[6]; first compound 8 µM,0.437
same,relative viability,[7]; first compound 0.253 µM,0.564
same,relative viability,[7]; first compound 0.8 µM,0.547
same,relative viability,[7]; first compound 2.53 µM,0.691
same,relative viability,[7]; first compound 8 µM,0.548
same,relative viability,[8]; first compound 0.253 µM,0.536
same,relative viability,[8]; first compound 0.8 µM,0.547
same,relative viability,[8]; first compound 2.53 µM,0.565
same,relative viability,[8]; first compound 8 µM,0.58
same,relative viability,[9]; first compound 0.253 µM,0.76
same,relative viability,[9]; first compound 0.8 µM,0.875
same,relative viability,[9]; first compound 2.53 µM,0.96
same,relative viability,[9]; first compound 8 µM,0.564
same,relative viability,[10]; first compound 0.253 µM,0.637
same,relative viability,[10]; first compound 0.8 µM,0.551
same,relative viability,[10]; first compound 2.53 µM,0.628
same,relative viability,[10]; first compound 8 µM,0.505
same,relative viability,[11]; first compound 0.253 µM,0.39
same,relative viability,[11]; first compound 0.8 µM,0.413
same,relative viability,[11]; first compound 2.53 µM,0.425
same,relative viability,[11]; first compound 8 µM,0.34
same,relative viability,[12]; first compound 0.253 µM,0.409
same,relative viability,[12]; first compound 0.8 µM,0.488
same,relative viability,[12]; first compound 2.53 µM,0.497
same,relative viability,[12]; first compound 8 µM,0.206
same,relative viability,[13]; first compound 0.253 µM,0.681
same,relative viability,[13]; first compound 0.8 µM,0.584
same,relative viability,[13]; first compound 2.53 µM,0.75
same,relative viability,[13]; first compound 8 µM,0.491
same,relative viability,[14]; first compound 0.253 µM,0.384
same,relative viability,[14]; first compound 2.53 µM,0.515
same,relative viability,[14]; first compound 8 µM,0.344
same,relative viability,[15]; first compound 0.253 µM,0.47
same,relative viability,[15]; first compound 0.8 µM,0.425
same,relative viability,[15]; first compound 2.53 µM,0.414
same,relative viability,[15]; first compound 8 µM,0.481
same,relative viability,[16]; first compound 0.253 µM,0.645
same,relative viability,[16]; first compound 2.53 µM,0.643
same,relative viability,[16]; first compound 8 µM,0.573
same,relative viability,[17]; first compound 0.253 µM,0.414
same,relative viability,[17]; first compound 2.53 µM,0.595
same,relative viability,[17]; first compound 8 µM,0.417
same,relative viability,[18]; first compound 0.253 µM,0.358
same,relative viability,[18]; first compound 0.8 µM,0.373
same,relative viability,[18]; first compound 2.53 µM,0.401
same,relative viability,[18]; first compound 8 µM,0.406
same,relative viability,[19]; first compound 0.253 µM,0.23
same,relative viability,[19]; first compound 0.8 µM,0.211
same,relative viability,[19]; first compound 2.53 µM,0.241
same,relative viability,[19]; first compound 8 µM,0.196
same,relative viability,[20]; first compound 0.253 µM,0.448
same,relative viability,[20]; first compound 2.53 µM,0.444
same,relative viability,[20]; first compound 8 µM,0.404
same,relative viability,[21]; first compound 0.253 µM,0.317
same,relative viability,[21]; first compound 0.8 µM,0.328
same,relative viability,[21]; first compound 2.53 µM,0.389
same,relative viability,[21]; first compound 8 µM,0.339
same,relative viability,[22]; first compound 0.253 µM,0.276
same,relative viability,[22]; first compound 0.8 µM,0.248
same,relative viability,[22]; first compound 2.53 µM,0.839
same,relative viability,[22]; first compound 8 µM,0.363
